The values that follow come from ChEMBL document CHEMBL3272223, “Folate analogues altered in the C9-N10 bridge region. 10-Oxafolic acid and 10-oxaaminopterin” (J Med Chem, 1976).

Activity calls are given as the source filed them. No cut-off for these calls is given here.

The target in assay [1] is Dihydrofolate reductase (Lactobacillus casei) (UniProt P00381). The experiment in a line: Inhibition of DCM-resistant Lactobacillus casei DHFR at 0.13 mM. Conditions: Lacticaseibacillus casei.
The target is the same in assay [2]. Put plainly: Activity at DCM-resistant Lactobacillus casei DHFR. Conditions: Lacticaseibacillus casei.
Assay [3] has the same target. Put plainly: Activity at DCM-resistant Lactobacillus casei DHFR relative to 7,8-dihydrofolic acid. Conditions: Lacticaseibacillus casei.
The next assay deals with Dihydrofolate reductase (Lactobacillus casei, UniProt P00381). The experiment in a line: Inhibition of DCM-resistant Lactobacillus casei DHFR. More on the design: species or system Lacticaseibacillus casei. The conditions noted are these: read-out: I50.
Assay [4] has as its system Enterococcus faecium. The experiment in a line: Growth inhibition of Streptococcus faecium ATCC 8043 at 5 ng/ml by turbidimetric method. Type of assay: functional. Conditions: read-out: GI.
Assay [5] has as its system Enterococcus faecium. Put plainly: Growth inhibition of Streptococcus faecium ATCC 8043 at 50 ng/ml by turbidimetric method. Type of assay: functional. The conditions noted are these: read-out: GI.

Dihydrofolate reductase (Lactobacillus casei), sequence (P00381 whole entry): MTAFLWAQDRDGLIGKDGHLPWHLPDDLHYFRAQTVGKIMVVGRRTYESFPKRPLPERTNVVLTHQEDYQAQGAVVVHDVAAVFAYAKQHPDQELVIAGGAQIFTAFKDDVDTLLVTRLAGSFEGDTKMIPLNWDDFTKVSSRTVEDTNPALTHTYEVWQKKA
Dihydrofolate reductase, sequence (P00381 whole entry): as above

As to `Nc1nc(=O)c2c([nH]1)NCC(COc1ccc(C(=O)N[C@@H](CCC(=O)O)C(=O)O)cc1)=N2`, the inhibition entry in assay [1] is “inactive”. Moreover, the result in assay [2] was inactive.
As for `Nc1nc(=O)c2c([nH]1)NCC(CSc1ccc(C(=O)N[C@@H](CCC(=O)O)C(=O)O)cc1)=N2`, in assay [3], the Activity came to 28%.
Regarding `Nc1nc(N)c2nc(COc3ccc(C(=O)N[C@@H](CCC(=O)O)C(=O)O)cc3)cnc2n1`, at Dihydrofolate reductase, the IC50 came out at 4.5 nM. The inhibition of growth at 0.005 µg/mL with Enterococcus faecium [4] amounted to 50%.
Take `Nc1nc(=O)c2nc(COc3ccc(C(=O)N[C@@H](CCC(=O)O)C(=O)O)cc3)cnc2[nH]1`: the inhibition result in assay [1] was “inactive”. Besides, in the assay with Enterococcus faecium [5], the inhibition of growth at 0.05 µg/mL stood at 50%.
